Columns and labels:
[1] = PAMPA membrane permeability assay; format: in vitro ADME; details: pH 7.4, GIT lipid, 4 hours incubation
Experimental: The PAMPA assay (pION, Inc., Woburn MA) was used to determine the ability of compounds of the invention to cross an artificial lipid membrane by passive diffusion. Test compounds were dissolved in DMSO (10 mM) and diluted 200-fold in buffer (pION Inc., pH 7.4) to provide 50 μM stock solutions. Buffer (150 μL) was added to a UV blank plate and stock solutions (150 μL) were transferred to a UV reference plate. The blank and reference spectrum were read using a spectrophotometer. Stock solutions (200 μL) were added to the donor plate of the PAMPA sandwich plate and an accept plate painted with GIT lipid (pION Inc, 5 μL) was placed on top. Buffer (200 μL) was added to the acceptor plate and the PAMPA sandwich plate was incubated for 4 hours. Aliquots (150 μL) from the acceptor plate were added to a UV plate and read as acceptor spectrum. Aliquots (150 μL) of the donor solutions were added to a UV analysis plate and read as donor spectrum. The permeability coefficient of test compounds was calculated using PAMPA Explorer™ software (version 3.5.0.4) based on the AUC of the reference plate, the donor plate, and the acceptor plate.

NaV1.7 [2] = molecular target: T1, NaV1.7 (Homo sapiens, UniProt Q15858); assay: Intracellular (internal block) inhibition of NaV1.7 current, whole cell patch clamp; format: cell-based; details: compound in internal solution; for inhibition at 1 µM: read-out: Nav 1.7 Intracellular Inhibition
T1 construct: expressed in transfected cells; tetracycline-inducible, kept under hygromycin and blasticidin selection
Experimental: (§1) NaV1.7 was expressed upon induction with tetracycline. Cells were cultured in DMEM containing 10% dialyzed Fetal Bovine Serum (VWR, Radnor, PA), 1% Glutamax (VWR, Radnor, PA), 1% Penicillin-Streptomycin (VWR, Radnor, PA), 100 mg/L Hygromycin (Thermo Fisher Scientific, Waltham, MA and 5 mg/L Blasticidin (Alfa Aesar, Haverhill, MA). Cells were grown and maintained at 37° C. in a humidified environment containing 10% CO2 in air. Cells were detached from the culture flask for passage and harvested using 0.05% Trypsin-EDTA (Thermo Fisher Scientific, Waltham, MA). To induce NaV1.7, cells were induced with tetracycline (0.1-1 μg/mL, IBI Scientific, Peosta, IA) the day before recording and plated onto 24-well plates. Cells were washed with DPBS (VWR, Radnor, PA), trypsinized and then triturated five times in 10 mL of growth media to break apart cell aggregates. For one 24-well plate, 2 mL of cell suspension was mixed with 23 mL of fresh growth media and 0.1-1 μg/mL tetracycline added. 1 ml of mixed media with cells was then added to each well of a 24-well plate, with a 12 mm coverslip already placed in the bottom of the well. Cells were then incubated in 37° C. and 10% CO2 overnight.
The intracellular solution contained the following (in mM) CsCl 135, NaCl 10, EGTA 10, HEPES 10, MgCl2 2, adjusted to pH 7.2 with CsOH. The external solution was a normal Ringer solution containing (in mM) NaCl 155, HEPES 10, glucose 10, KCl 3.5, CaCl2 1.5, MgCl2 1 adjusted to pH 7.4 with NaOH. CsCl is from Alfa Aesar, Haverhill, MA. All other chemicals are from Sigma-Aldrich, St. Louis, MO. In order to test the degree of internal block by test compounds the compounds were dissolved in internal solution at the indicated test concentration. […] In order to test the degree of external block by test compounds the compounds were dissolved in external solution at the indicated test concentration.
18-24 hours after cells were induced with tetracycline, coverslips were placed into a chamber filled with Normal Ringer solution at room temperature and the chamber placed on a microscope. Pipettes were pulled from borosilicate glass on a P97 puller (Sutter Instrument, Novato, CA) and polished with a MF-830 Microforge (Narishige International USA, Inc, Amityville, NY) to have a resistance of 1.5-2.5 MΩ when filled with CsCl internal solution at room temperature. Healthy cells (those that are round and translucent with no visible blemishes) were chosen for seal formation. A seal was formed between the pipette and the cell, and a brief pulse of suction was used to “break in” and establish the whole-cell configuration. The membrane potential was held at −100 mV before the voltage protocol began. Only cells with series resistance between 1.5-5 MΩ were retained for analysis. The voltage protocol was as follows: Cells were held at −100 mV for 12 ms followed by a hyperpolarizing step to −105 mV for 12 ms to monitor the leak. Cells were then stepped back to −100 mV for 40 ms. Cells were then depolarized to −20 mV for 10 ms and then returned to −100 mV for 26 ms.
Once the recording was started, the voltage protocol was run at 30 second intervals for 5 minutes to get a stable baseline. This was followed by four 30-second periods of 5 Hz stimulation of the same voltage protocol separated by 1 minute of rest which was then followed by 0.33 Hz stimulation after the last train. Currents were recorded using PatchMaster software with Heka EPC10 (HEKA Electronics, Lambrecht, Germany). Only cells with inward current amplitudes at −20 m V between 400 pA and 4 nA were accepted. In addition, cells having leak currents greater than 10% of their current amplitudes were discarded.
(§2) The data was plotted using the Patchmaster software (HEKA Electronics, Lambrecht, Germany) and analyzed by plotting the minimum current during the voltage step to −20 m V (peak inward current) as a function of time. […]

NaV1.7 [3] = molecular target: T1, NaV1.7; assay: Extracellular (external block) inhibition of NaV1.7 current, whole cell patch clamp; format: cell-based; details: compound in external solution
Experimental: as §1, with “For one 24-well plate, 2 mL of cell suspension was mixed with 23 mL of fresh growth media and 0.1-1 μg/mL tetracycline added. 1 ml of mixed media with cells was then added to each well of a 24-well plate, with a 12 mm coverslip already placed in the bottom of the well. Cells were then incubated in 37° C. and 10% CO2 overnight.” left out
Once the recording was started, the voltage protocol was run at 30 second intervals for 5 minutes to get a stable baseline. […] Currents were recorded using PatchMaster software with Heka EPC10 (HEKA Electronics, Lambrecht, Germany). […]
as §2

T1 sequence (Q15858 whole entry): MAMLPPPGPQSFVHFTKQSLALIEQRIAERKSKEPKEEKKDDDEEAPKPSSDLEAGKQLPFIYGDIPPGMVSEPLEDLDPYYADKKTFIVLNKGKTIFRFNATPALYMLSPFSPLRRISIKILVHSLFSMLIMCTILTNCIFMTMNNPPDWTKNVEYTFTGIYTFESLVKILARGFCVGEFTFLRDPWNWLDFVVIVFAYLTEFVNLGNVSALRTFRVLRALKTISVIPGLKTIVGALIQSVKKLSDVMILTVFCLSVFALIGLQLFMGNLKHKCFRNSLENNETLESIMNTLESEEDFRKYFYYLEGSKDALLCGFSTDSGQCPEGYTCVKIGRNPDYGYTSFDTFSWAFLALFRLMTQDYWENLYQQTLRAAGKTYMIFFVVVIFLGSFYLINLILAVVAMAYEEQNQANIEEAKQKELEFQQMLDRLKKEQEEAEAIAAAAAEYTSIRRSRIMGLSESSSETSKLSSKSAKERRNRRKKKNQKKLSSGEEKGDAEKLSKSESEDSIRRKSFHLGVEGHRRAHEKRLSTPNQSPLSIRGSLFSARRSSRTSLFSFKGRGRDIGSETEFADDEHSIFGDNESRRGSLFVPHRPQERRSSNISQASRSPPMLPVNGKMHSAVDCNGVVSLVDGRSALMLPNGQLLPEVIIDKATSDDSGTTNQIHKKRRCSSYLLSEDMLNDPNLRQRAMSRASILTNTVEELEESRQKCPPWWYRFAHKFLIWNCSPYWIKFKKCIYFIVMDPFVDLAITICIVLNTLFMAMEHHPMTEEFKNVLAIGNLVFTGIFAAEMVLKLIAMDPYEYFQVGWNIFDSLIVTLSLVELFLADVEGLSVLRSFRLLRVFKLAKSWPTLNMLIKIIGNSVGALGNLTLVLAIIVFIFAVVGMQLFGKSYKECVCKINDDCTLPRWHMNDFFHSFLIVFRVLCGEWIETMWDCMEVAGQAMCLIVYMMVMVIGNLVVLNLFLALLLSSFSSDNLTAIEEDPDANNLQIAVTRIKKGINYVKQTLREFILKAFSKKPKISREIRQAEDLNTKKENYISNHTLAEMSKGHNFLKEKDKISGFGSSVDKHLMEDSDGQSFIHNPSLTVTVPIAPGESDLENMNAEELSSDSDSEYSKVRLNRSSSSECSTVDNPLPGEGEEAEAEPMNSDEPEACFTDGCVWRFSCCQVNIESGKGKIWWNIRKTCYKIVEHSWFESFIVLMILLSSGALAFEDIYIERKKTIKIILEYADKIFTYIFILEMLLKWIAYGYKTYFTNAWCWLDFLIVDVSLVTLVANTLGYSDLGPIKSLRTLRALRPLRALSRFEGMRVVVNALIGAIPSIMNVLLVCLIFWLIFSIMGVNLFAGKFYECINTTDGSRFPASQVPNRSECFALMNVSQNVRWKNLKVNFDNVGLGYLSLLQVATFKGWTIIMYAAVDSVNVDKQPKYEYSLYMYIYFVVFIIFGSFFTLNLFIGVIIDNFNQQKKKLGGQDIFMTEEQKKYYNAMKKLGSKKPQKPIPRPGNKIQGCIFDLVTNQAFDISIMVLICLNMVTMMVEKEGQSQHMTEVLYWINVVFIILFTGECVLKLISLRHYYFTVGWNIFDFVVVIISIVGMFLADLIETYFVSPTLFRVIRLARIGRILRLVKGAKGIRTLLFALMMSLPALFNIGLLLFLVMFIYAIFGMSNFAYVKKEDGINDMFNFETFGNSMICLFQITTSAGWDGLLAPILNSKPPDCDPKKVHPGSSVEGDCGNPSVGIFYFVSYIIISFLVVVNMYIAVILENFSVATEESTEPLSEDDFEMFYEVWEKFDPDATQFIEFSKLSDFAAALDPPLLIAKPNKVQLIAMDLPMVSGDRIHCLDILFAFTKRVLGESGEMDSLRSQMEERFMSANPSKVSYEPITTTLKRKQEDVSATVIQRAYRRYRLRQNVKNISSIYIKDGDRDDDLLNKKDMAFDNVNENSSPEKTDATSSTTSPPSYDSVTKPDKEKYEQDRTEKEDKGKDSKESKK

| Compound | PAMPA (10^−6 cm/s) [1] | inhibition at 1 µM (NaV1.7 [2]) | inhibition at 3 µM (NaV1.7 [3]; test concentration of 3 μM) | Papp at 4 h, 50 µM ([1]; PAMPA) | inhibition at 3 µM (NaV1.7 [2]; test concentration of 3 μM) | inhibition at 1 µM (NaV1.7 [3]; test concentration of 1 μM) |
| --- | --- | --- | --- | --- | --- | --- |
| COC(=O)c1scc(C)c1NC(=O)C[N+]1(Cc2ccccc2)CCCCC1.[Br-] [B] | ++ (“++” (0.1-2.0 10^−6 cm/s)) | 40 to 70% |  |  |  |  |
| CCC(C(=O)Nc1c(C)csc1C(=O)OC)[N+]1(Cc2ccccc2)CCCCC1.[Br-] (stereo not shown) [G] | + (“+” (<0.1 10^−6 cm/s)) | 40 to 70% |  |  |  |  |
| CC[N+]1(CC(=O)Nc2c(C)csc2C(=O)OC)CCCC(c2ccccc2)C1.[I-] (stereo not shown) [F] | + (“+” (<0.1 10^−6 cm/s)) | 70 to 90% |  |  |  |  |
| COC(=O)c1scc(C)c1NC(=O)C[N+]1(Cc2ccccc2)CCCCCC1.[Br-] [Compound-31, 1-benzyl-1-(2-((2-(methoxycarbonyl)-4-methylthiophen-3-yl)amino)-2-oxoethyl) azepan-1-ium bromide] | ++ (“++” (0.1-2.0 10^−6 cm/s)) | 70 to 90% | < 40% | 0.4 ×10⁻⁶ cm/s | > 95% |  |
| CCCOC(=O)c1scc(C)c1NC(=O)C[N+]1(Cc2ccccc2)CCCCCC1.[Br-] [C] | + (“+” (<0.1 10^−6 cm/s)) | > 90% |  |  |  |  |
| Cc1csc(C)c1NC(=O)C[N+]1(Cc2ccccc2)CCCCCC1.[Br-] [H] | + (“+” (<0.1 10^−6 cm/s)) | 40 to 70% |  |  |  |  |
| CCOC(=O)c1scc(C)c1NC(=O)C[N+]1(Cc2ccccc2)CCCCCC1.[Br-] [D] | + (“+” (<0.1 10^−6 cm/s)) | > 90% |  |  |  | < 40% |
| Cc1csc(C(=O)OC(C)C)c1NC(=O)C[N+]1(Cc2ccccc2)CCCCCC1.[Br-] [E] | ++ (“++” (0.1-2.0 10^−6 cm/s)) | 70 to 90% |  |  |  |  |
| COC(=O)c1scc(C)c1NC(=O)C[N+]1(Cc2ccccc2)CCCC1.[Br-] [A] | + (“+” (<0.1 10^−6 cm/s)) | 40 to 70% |  |  |  |  |
